Test results from US7785828B1 (priority 2003, dated 2010).

Experiments:
Assay type in all cases: cell-based
Fusarium graminearum = system: Fusarium graminearum
Septoria tritici = system: Septoria tritici
Mycosphaerella fijiensis = system: Mycosphaerella fijiensis

Row | Sequence | Antifungal activity, Fusarium graminearum (improvement compared to DmAMP1) (Fusarium graminearum) | Antifungal activity, Septoria tritici (improvement compared to DmAMP1) (Septoria tritici) | Antifungal activity, Mycosphaerella fijiensis (improvement compared to DmAMP1) (Mycosphaerella fijiensis)
1 | NLCERASKTWSGNCGNTKHCDNQCKSWEGAAHGACHKRNGKWKCFCYFNC (Defensin like) [L9-18] | ++ (key: + indicating 1- to 5-fold improvement compared to DmAMP1; ++ indicating >5- to 10-fold improvement; +++ indicating >10-fold improvement) | ++ (key: + indicating 1- to 5-fold improvement compared to DmAMP1; ++ indicating >5- to 10-fold improvement; +++ indicating >10-fold improvement) | + (key: + indicating 1- to 5-fold improvement compared to DmAMP1; ++ indicating >5- to 10-fold improvement; +++ indicating >10-fold improvement)
2 | DGVKLCERPSKTWSGNCGNTKHCDKQCKNWEKAKHGACHVRNGKWKCFCYFNC (Defensin like) [L7-112] | + (key: + indicating 1- to 5-fold improvement compared to DmAMP1; ++ indicating >5- to 10-fold improvement; +++ indicating >10-fold improvement) | + (key: + indicating 1- to 5-fold improvement compared to DmAMP1; ++ indicating >5- to 10-fold improvement; +++ indicating >10-fold improvement) | + (key: + indicating 1- to 5-fold improvement compared to DmAMP1; ++ indicating >5- to 10-fold improvement; +++ indicating >10-fold improvement)
3 | NLCEKASKTWTGNCGNTKHCDNQCRNWEGAKHGACHVRSGKHKCFCYFNC (Defensin like) [L9-22] | +++ (key: + indicating 1- to 5-fold improvement compared to DmAMP1; ++ indicating >5- to 10-fold improvement; +++ indicating >10-fold improvement) | +++ (key: + indicating 1- to 5-fold improvement compared to DmAMP1; ++ indicating >5- to 10-fold improvement; +++ indicating >10-fold improvement) | + (key: + indicating 1- to 5-fold improvement compared to DmAMP1; ++ indicating >5- to 10-fold improvement; +++ indicating >10-fold improvement)
4 | NLCERASKTWSGNCGNTKHCDNQCKSWEGAAHGACHVRNGKHKCFCYFNC (Defensin like) [L6-61] | +++ (key: + indicating 1- to 5-fold improvement compared to DmAMP1; ++ indicating >5- to 10-fold improvement; +++ indicating >10-fold improvement) | ++ (key: + indicating 1- to 5-fold improvement compared to DmAMP1; ++ indicating >5- to 10-fold improvement; +++ indicating >10-fold improvement) | + (key: + indicating 1- to 5-fold improvement compared to DmAMP1; ++ indicating >5- to 10-fold improvement; +++ indicating >10-fold improvement)
5 | NLCERASKTWSGNCGNTKHCDTQCKSWEGAAHGACHVRNGKHKCFCYFNC (Defensin like) [L6-27] | +++ (key: + indicating 1- to 5-fold improvement compared to DmAMP1; ++ indicating >5- to 10-fold improvement; +++ indicating >10-fold improvement) | +++ (key: + indicating 1- to 5-fold improvement compared to DmAMP1; ++ indicating >5- to 10-fold improvement; +++ indicating >10-fold improvement) | + (key: + indicating 1- to 5-fold improvement compared to DmAMP1; ++ indicating >5- to 10-fold improvement; +++ indicating >10-fold improvement)
6 | NLCERASKTWSGNCGNTKHCDNQCRNWEGAKHGACHKRSGKWKCFCYFNC (Defensin like) [L9-30] | ++ (key: + indicating 1- to 5-fold improvement compared to DmAMP1; ++ indicating >5- to 10-fold improvement; +++ indicating >10-fold improvement) | + (key: + indicating 1- to 5-fold improvement compared to DmAMP1; ++ indicating >5- to 10-fold improvement; +++ indicating >10-fold improvement) | + (key: + indicating 1- to 5-fold improvement compared to DmAMP1; ++ indicating >5- to 10-fold improvement; +++ indicating >10-fold improvement)
7 | NLCERASKTWSGNCGNTKHCDTQCKNWEGAKHGACHVRNGKHKCFCYFNC (Defensin like) [L6-83] | +++ (key: + indicating 1- to 5-fold improvement compared to DmAMP1; ++ indicating >5- to 10-fold improvement; +++ indicating >10-fold improvement) | + (key: + indicating 1- to 5-fold improvement compared to DmAMP1; ++ indicating >5- to 10-fold improvement; +++ indicating >10-fold improvement) | + (key: + indicating 1- to 5-fold improvement compared to DmAMP1; ++ indicating >5- to 10-fold improvement; +++ indicating >10-fold improvement)
8 | NLCERASKTWSGNCGNTKHCDTQCRNWEGAAHGACHKRNGKWKCFCYFNC (Defensin like) [L6-12] | +++ (key: + indicating 1- to 5-fold improvement compared to DmAMP1; ++ indicating >5- to 10-fold improvement; +++ indicating >10-fold improvement) | + (key: + indicating 1- to 5-fold improvement compared to DmAMP1; ++ indicating >5- to 10-fold improvement; +++ indicating >10-fold improvement) | + (key: + indicating 1- to 5-fold improvement compared to DmAMP1; ++ indicating >5- to 10-fold improvement; +++ indicating >10-fold improvement)
9 | NLCERASKTWTGNCGNTKHCDTQCRSWEGAAHGACHVRSGKHKCFCYFNC (Defensin like) [L5-23] | + (key: + indicating 1- to 5-fold improvement compared to DmAMP1; ++ indicating >5- to 10-fold improvement; +++ indicating >10-fold improvement) | + (key: + indicating 1- to 5-fold improvement compared to DmAMP1; ++ indicating >5- to 10-fold improvement; +++ indicating >10-fold improvement) | + (key: + indicating 1- to 5-fold improvement compared to DmAMP1; ++ indicating >5- to 10-fold improvement; +++ indicating >10-fold improvement)
10 | NLCEKASKTWTGNCGNTKHCDNQCRNWEGAAHGACHKRSGKWKCFCYFNC (Defensin like) [L9-36] | + (key: + indicating 1- to 5-fold improvement compared to DmAMP1; ++ indicating >5- to 10-fold improvement; +++ indicating >10-fold improvement) | + (key: + indicating 1- to 5-fold improvement compared to DmAMP1; ++ indicating >5- to 10-fold improvement; +++ indicating >10-fold improvement) | + (key: + indicating 1- to 5-fold improvement compared to DmAMP1; ++ indicating >5- to 10-fold improvement; +++ indicating >10-fold improvement)
11 | NLCEKASKTWTGNCGNTKHCDTQCKNWEGAKHGACHKRNGKWKCFCYFNC (Defensin like) [L9-45] | + (key: + indicating 1- to 5-fold improvement compared to DmAMP1; ++ indicating >5- to 10-fold improvement; +++ indicating >10-fold improvement) | + (key: + indicating 1- to 5-fold improvement compared to DmAMP1; ++ indicating >5- to 10-fold improvement; +++ indicating >10-fold improvement) | + (key: + indicating 1- to 5-fold improvement compared to DmAMP1; ++ indicating >5- to 10-fold improvement; +++ indicating >10-fold improvement)
12 | NLCEKASKTWSGNCGNTKHCDTQCRNWEGAKHGACHVRNGKHKCFCYFNC (Defensin like) [L6-13] | +++ (key: + indicating 1- to 5-fold improvement compared to DmAMP1; ++ indicating >5- to 10-fold improvement; +++ indicating >10-fold improvement) | +++ (key: + indicating 1- to 5-fold improvement compared to DmAMP1; ++ indicating >5- to 10-fold improvement; +++ indicating >10-fold improvement) | ++ (key: + indicating 1- to 5-fold improvement compared to DmAMP1; ++ indicating >5- to 10-fold improvement; +++ indicating >10-fold improvement)
13 | NLCEKASKTWSGNCGNTKHCDNQCKNWEGAAHGACHVRNGKHKCFCYFNC (Defensin like) [L6-70] | +++ (key: + indicating 1- to 5-fold improvement compared to DmAMP1; ++ indicating >5- to 10-fold improvement; +++ indicating >10-fold improvement) | + (key: + indicating 1- to 5-fold improvement compared to DmAMP1; ++ indicating >5- to 10-fold improvement; +++ indicating >10-fold improvement) | + (key: + indicating 1- to 5-fold improvement compared to DmAMP1; ++ indicating >5- to 10-fold improvement; +++ indicating >10-fold improvement)
14 | NLCERASKTWSGNCGNTKHCDTQCRNWEGAAHGACHVRNGKHKCFCYFNC (NLCERASKTWSGNCGNTKHCDTQCKNWEGAAHGACHVRNGKHKCFCYFNC; Defensin like) [L6-57] | +++ (key: + indicating 1- to 5-fold improvement compared to DmAMP1; ++ indicating >5- to 10-fold improvement; +++ indicating >10-fold improvement) | + (key: + indicating 1- to 5-fold improvement compared to DmAMP1; ++ indicating >5- to 10-fold improvement; +++ indicating >10-fold improvement) | ++ (key: + indicating 1- to 5-fold improvement compared to DmAMP1; ++ indicating >5- to 10-fold improvement; +++ indicating >10-fold improvement)
15 | DGVKLCERASQTWTGHCGNTKHCDNQCRSWEGAAHGACHKRSGKWKCFCYFNC (Defensin like) [L7-82] | ++ (key: + indicating 1- to 5-fold improvement compared to DmAMP1; ++ indicating >5- to 10-fold improvement; +++ indicating >10-fold improvement) | + (key: + indicating 1- to 5-fold improvement compared to DmAMP1; ++ indicating >5- to 10-fold improvement; +++ indicating >10-fold improvement) | +++ (key: + indicating 1- to 5-fold improvement compared to DmAMP1; ++ indicating >5- to 10-fold improvement; +++ indicating >10-fold improvement)
16 | NLCERASKTWSGNCGNTKHCDNQCRNWEGAKHGACHVRNGKWKCFCYFNC [L6-40] (Defensin like) | +++ (key: + indicating 1- to 5-fold improvement compared to DmAMP1; ++ indicating >5- to 10-fold improvement; +++ indicating >10-fold improvement) | +++ (key: + indicating 1- to 5-fold improvement compared to DmAMP1; ++ indicating >5- to 10-fold improvement; +++ indicating >10-fold improvement) | + (key: + indicating 1- to 5-fold improvement compared to DmAMP1; ++ indicating >5- to 10-fold improvement; +++ indicating >10-fold improvement)
